From US20260048051A1, “TREATMENT OF INFLAMMATORY BOWEL DISEASE” (Atomwise Inc., priority 2024, published 2026)
Where two headings read alike, the source gives them in different places.

Assay: Plasma and tissue distribution in SD rats
Type: in vivo
Conditions: for Tissue/Plasma Ratio (AUCinf) / Kp: SD rat; for Kp: rat, oral, read-out: Tissue/Plasma Ratio (AUCinf); for Cmax / Tmax / half-life / AUC0-inf / AUC0-24 / AUC0-last: PO 10 mg/kg
Excerpt: The following Example describes the methods and data used to evaluate the tissue distribution of TYK2 inhibitors following the administration of either compound 1 or compound 2.
Thirty (30, 15/sex) SD rats supplied by Beijing Vital River Laboratory Animal Technology Co., Ltd. were used in this study. The animals were confirmed to be healthy before being assigned to the study. The room (s) was controlled and monitored for relative humidity (targeted mean range 40% to 70%) and temperature (targeted mean range 20° C. to 26° C.) with 15 or above air changes/hour. The room was on a 12-hour light/dark cycle except when interruptions were necessitated by study activities. Fresh drinking water (reverses osmosis) was available to all animals, ad libitum. Certified animal diet from certified vendor was available to all animals, ad libitum.
Animals were weighed prior to dose administration to calculate the actual dose volume. The body weights were in the range from 245.39 to 276.33 g for males and 182.29 to 215.69 g for females on the first dosing day. The animals in Groups 1 and 2 received a single oral gavage administration of test compound 1. Cage-side observations for the general health condition and appearance of the animal were performed before and after dosing and at each time point of sample collection. Unusual observations were recorded throughout the duration of the study.
The vehicle was 0.5% methyl cellulose (4000 cps) in water. The formulation was prepared according to the following steps. Group 1: 25.95 mg of compound 1 was weighed into a glass vial. 5000 μL of vehicle was added into the vial and stirred for 30 min at 1700 rpm to get a homogenous opaque suspension. 5000 μL of vehicle was added into the vial and stirred for 10 min at 1700 rpm to get a homogenous opaque suspension. 5000 μL+5000 μL+5000 μL+924 μL of vehicle was added into the vial and stirred for 10 min at 1700 rpm to get a homogenous opaque suspension. Group 2: 81.66 mg of compound 1 was weighed into a glass vial. 5000 μL of vehicle was added into the vial and stirred for 30 min at 1700 rpm to get a homogenous opaque suspension. 5000 μL of vehicle was added into the vial and stirred for 10 min at 1700 rpm to get a homogenous opaque suspension. 10 mL+10 mL+10 mL+20 mL+10 mL+10 mL+1580 μL of vehicle was added into the vial and stirred for 10 min at 1700 rpm to get a homogenous opaque suspension.
Blood (about 0.2 mL) was collected at each time point via jugular vein puncture from each study animal. The actual time for each sample collection was recorded. The acceptable deviations on sampling time were ±1 min for the time points pre-dose through 1 hour post-dose, and +5% of the nominal time for time points after 1 hour post-dose.
All blood samples were transferred into commercial tubes containing K2-EDTA. After blood was collected, the samples were placed on wet ice and processed for plasma within 60 minutes of collection by centrifugation at approximately 4° C., 3200×g for 10 minutes, and then quickly frozen over dry ice and kept at −60° C. or lower until LC-MS/MS analysis.
Following terminal blood sample collection, animals were conducted CO2 euthanasia, the chest and abdominal cavities were opened carefully lengthwise using scissors to expose the internal organs in preparation of tissue perfusion. A needle was used to puncture a small hole into the left ventricle of the heart, and then clamped with a hemostat. […] Fluid (cold 1×PBS) was infused until the liver pales (typically 2-3 minutes). Following perfusion, 14 kinds of tissues (spleen, bone marrow, adipose, brain, heart, kidney, liver, lung, skin, small intestine, large intestine, eye, gonads, and bladder) were collected from each animal, respectively.
Each tissue was weighed and homogenized on wet ice using homogenizing buffer (MeOH/15 mM PBS 1:2) at the ratio of 1:9 (1 g tissue with 9 mL buffer). The tissue homogenate was kept at −60° C. or lower until LC-MS/MS analysis. […]

[1] = Sprague-Dawley, epididymis and testis, male SD rat, Epididymis & Testis
[2] = Sprague-Dawley, male SD rat, Eyeball (left and right)
[3] = Sprague-Dawley, male SD rat, Fat
[4] = Sprague-Dawley, male SD rat, Heart
[5] = Sprague-Dawley, male SD rat, Kidney (left and right)
[6] = Sprague-Dawley, male SD rat, Large intestine
[7] = Sprague-Dawley, plasma, female SD rat
[8] = Sprague-Dawley, plasma, male SD rat
[9] = female SD rat, Eyeball (left and right)
[10] = female SD rat, Kidney (left and right)

C[C@@H](c1ccc(Nc2cc(Nc3ncccc3S(C)(=O)=O)ncn2)nc1)N1CC2(COC2)C1 [Compound 1, (S)—N^4-(5-(1-(2-oxa-6-azaspiro[3.3]heptan-6-yl)ethyl)pyridin-2-yl)-N^6-(3-(methylsulfonyl)pyridin-2-yl)pyrimidine-4,6-diamine]
Tissue/Plasma Ratio (AUCinf) (Kidney): 9.1
Tissue/Plasma Ratio (AUCinf) (Large Intestine): 13
Kp (Sprague-Dawley (SD), bone marrow / plasma, Bone Marrow): 4.3
Cmax [1]: 350 ng/g
Tmax [1]: 8 h
Kp (Sprague-Dawley, adipose, Adipose): 0.59
Kp (Sprague-Dawley, bladder, Bladder): 5
Kp (Sprague-Dawley, eye, Eye): 0.8
Kp (Sprague-Dawley, kidney, Kidney): ~9
Kp (Sprague-Dawley, large intestine, Large Intestine): ~13
Kp (Sprague-Dawley, liver, Liver): 7.6
Kp (Sprague-Dawley, lung, Lung): 2
Kp (Sprague-Dawley, skin, Skin): 3.2
Kp (Sprague-Dawley, small intestine, Small Intestine): 21
Kp (Sprague-Dawley, spleen, Spleen): 5.4
Cmax [2]: 327 ng/g
Tmax [2]: 0.5 h
half-life [2]: 4.03 h
Cmax [3]: 464 ng/g
Tmax [3]: 0.5 h
half-life [3]: 3.08 h
Cmax [4]: 1260 ng/g
Tmax [4]: 0.5 h
half-life [4]: 2.31 h
Cmax [5]: 6140 ng/g
Tmax [5]: 0.5 h
half-life [5]: 3.79 h
Cmax [6]: 5180 ng/g
Tmax [6]: 8 h
Cmax [7]: 1180 ng/mL
Tmax [7]: 0.5 h
half-life [7]: 2.39 h
AUC0-inf (Sprague-Dawley, plasma, female SD rat, read-out: AUC0-inf): 3610 ng·h/mL
Cmax [8]: 1370 ng/mL
Tmax [8]: 0.667 h
half-life [8]: 2.75 h
AUC0-inf (Sprague-Dawley, plasma, male SD rat, read-out: AUC0-inf): 2920 ng·h/mL
AUC0-24 (female SD rat, Bladder): 17454 ng·h/g
AUC0-inf (female SD rat, Bladder): 17693 ng·h/g
AUC0-last (female SD rat, Bladder): 17454 ng·h/g
Cmax (female SD rat, Bladder): 4150 ng/g
Tmax (female SD rat, Bladder): 2 h
half-life (female SD rat, Bladder): 3.61 h
AUC0-24 (female SD rat, Bone Marrow): 17781 ng·h/g
AUC0-inf (female SD rat, Bone Marrow): 17791 ng·h/g
AUC0-last (female SD rat, Bone Marrow): 15823 ng·h/g
Cmax (female SD rat, Bone Marrow): 3840 ng/g
Tmax (female SD rat, Bone Marrow): 0.5 h
half-life (female SD rat, Bone Marrow): 2.52 h
AUC0-24 [9]: 3253 ng·h/g
AUC0-inf [9]: 3348 ng·h/g
AUC0-last [9]: 3253 ng·h/g
Cmax [9]: 449 ng/g
Tmax [9]: 2 h
half-life [9]: 4.51 h
AUC0-24 (female SD rat, Fat): 1725 ng·h/g
AUC0-last (female SD rat, Fat): 1725 ng·h/g
Cmax (female SD rat, Fat): 417 ng/g
Tmax (female SD rat, Fat): 2 h
AUC0-24 (female SD rat, Heart): 5608 ng·h/g
AUC0-inf (female SD rat, Heart): 5627 ng·h/g
AUC0-last (female SD rat, Heart): 4754 ng·h/g
Cmax (female SD rat, Heart): 1280 ng/g
Tmax (female SD rat, Heart): 0.5 h
half-life (female SD rat, Heart): 2.88 h
AUC0-24 [10]: 36323 ng·h/g
AUC0-inf [10]: 36373 ng·h/g
AUC0-last [10]: 36323 ng·h/g
Cmax [10]: 7800 ng/g
Tmax [10]: 0.5 h
half-life [10]: 2.46 h
AUC0-24 (female SD rat, Large intestine): 39634 ng·h/g
AUC0-last (female SD rat, Large intestine): 39634 ng·h/g
Cmax (female SD rat, Large intestine): 4670 ng/g
Tmax (female SD rat, Large intestine): 8 h
AUC0-24 (female SD rat, Liver): 29588 ng·h/g
AUC0-inf (female SD rat, Liver): 29655 ng·h/g
AUC0-last (female SD rat, Liver): 29588 ng·h/g
Cmax (female SD rat, Liver): 6310 ng/g
Tmax (female SD rat, Liver): 0.5 h
half-life (female SD rat, Liver): 2.67 h
AUC0-24 (female SD rat, Lung): 8773 ng·h/g
AUC0-last (female SD rat, Lung): 8773 ng·h/g
Cmax (female SD rat, Lung): 2180 ng/g
Tmax (female SD rat, Lung): 2 h
AUC0-24 (female SD rat, Ovary & Uterus): 5024 ng·h/g
AUC0-inf (female SD rat, Ovary & Uterus): 5028 ng·h/g
AUC0-last (female SD rat, Ovary & Uterus): 4408 ng·h/g
AUC0-24 (female SD rat, Skin): 3803 ng·h/g
AUC0-last (female SD rat, Skin): 3803 ng·h/g
Cmax (female SD rat, Skin): 893 ng/g
Tmax (female SD rat, Skin): 2 h
AUC0-24 (female SD rat, Small intestine): 59880 ng·h/g
AUC0-inf (female SD rat, Small intestine): 59932 ng·h/g
AUC0-last (female SD rat, Small intestine): 59880 ng·h/g
Cmax (female SD rat, Small intestine): 12300 ng/g
Tmax (female SD rat, Small intestine): 0.5 h
half-life (female SD rat, Small intestine): 2.3 h
